These results are taken from paper PMC10396955, “2-Oxabicyclo[2.1.1]hexanes as saturated bioisosteres of the ortho-substituted phenyl ring” (Nature Chemistry, 2023).

Series [1] in a line: Chemical stability of carboxylic acids (acid, base, storage). Type of series: physicochemical. The note with it: room temperature, one day. The source says:
We also checked the chemical stability of three representative carboxylic acids, 1b, 19b and 22b (Table 2), because we suspected that some of them could decompose via a retro-Michael-type reaction. […] All products were crystalline solids, and we stored all of them in closed vials at room temperature on the shelf.

The next series can be described thus: physchem. The format is physicochemical. The settings on record: for D (partition ratio), incubation 1 / D (partition ratio), incubation 2 / D (partition ratio), incubation 3: Table S2, n-octanol/PBS pH 7.4. The procedure: Determination of Distribution Coefficient (LogD, pH 7.4) […]
n-octanol – phosphate buffered saline (PBS), pH 7.4. Distribution coefficient (or LogD) is a […]
Phosphate buffered saline, tablet (Sigma-Aldrich, USA; Cat # P4417)
Acetic acid (Enamine, Ukraine.)
DMSO stock solutions of the test compounds 10mM
Gradient HPLC system (Shimadzu, Japan)
MTR22 Multi Mix Rotator (UNICO, USA)
Laboratory Centrifuge, Sigma 4-15C, Qiagen (SIGMA GmbH, Germany) […]
allowed to mix in a rotator for 1 h at 30 rpm. Phase separation was assured by centrifugation for […]
dilution. The samples (both phases) were analyzed using a HPLC system coupled with a tandem mass spectrometer. Mebendazole was used as a reference compound. […]
where: SO – peak area of the analyte in octanol phase
S P – peak area of the analyte in PBS buffer do – dilution coefficient for octanol phase dp – dilution coefficient for aqueous phase

Series [2] can be described thus: Kinetic solubility in phosphate-buffered saline, pH 7.4. The format is physicochemical. The note with it: phosphate-buffered saline, 25 °C, pH 7.4, aqueous buffer, kinetic from dmso stock. As to the method:
Analysis of Aqueous Solubility […]
compound (Ondansetron) were assessed for kinetic solubility in phosphate-buffered saline, pH […]
Phosphate buffered saline, pH 7.4 (Sigma-Aldrich, USA; Cat #P3813) […]
MultiScreen HTS 96 Well Filter Plates (Millipore, Ireland; Cat # MSGVS2210) […]
Matrix Multichannel Electronic Pipette 2-125 µL, 5-250 µL, 15-1250 µL (Thermo Scientific, […]
Vacuum pump (Millipore, USA; Model # XX5500000)
The measurements were performed using SpectraMax Plus reader in UV-Vis mode. Acquisition and analysis of the data were performed using SoftMax Pro v.5.4 (Molecular Devices) and Excel […]
Kinetic solubility assay was performed according to the Enamine’s aqueous solubility SOP.
Briefly, using a 20 mM stock solution of the compound in 100% DMSO dilutions were prepared to a theoretical concentration of 400 μM in duplicates in phosphate-buffered saline pH 7.4 […]
for two hours and then filtered through HTS filter plates using a vacuum manifold. The filtrates of test compounds were diluted 2-fold with acetonitrile with 2% DMSO before measuring.
In parallel, compound dilutions in acetonitrile/PBS (1:1) were prepared to theoretical […]
DMSO to generate calibration curves. Ondansetron was used as reference compound to control proper assay performance. 200 μl of each sample was transferred to 96-well plate and measured in 200-550 nm range with 5 nm step.
The concentrations of compounds in PBS filtrate are calculated using a dedicated Microsoft Excel calculation script. Proper absorbance wavelengths for calculations are selected for each compound manually based on absorbance maximums (absolute absorbance unit values for the minimum and maximum concentration points within 0 – 3 OD range). Each of the final datasets is additionally visually evaluated by the operator and goodness of fit (R2) is calculated for each calibration curve. The effective range of this assay is approximately 2-400 μM and the […]

The next series concerns human liver microsomes. The series is described as follows: Metabolic stability in human liver microsomes. Type of series: in vitro ADME. As to the method: (§1) The data acquisition and system control was performed using Analyst 1.6.3 software from AB Sciex. Methods Microsomal incubations were carried out in 96-well plates in 5 aliquots of 30 μL each (one for each time point). […] In the control reactions the NADPH-cofactor system was substituted with phosphate buffer. […] Each reaction was performed in duplicates. Five time points over 40 minutes were analyzed. The reactions were stopped by adding 4 volumes of methanol containing internal standard to incubation aliquots, followed by protein sedimentation by centrifuging at 5500 rpm for 4 minutes. […]. Supernatants were analyzed using the HPLC system coupled with tandem mass spectrometer. […] In some cases, the last time point is excluded from the calculations to ensure acceptable logarithmic linearity of decay.
On the technique in general: Liver microsomes are a subcellular fraction often used to study metabolism.

Series [3] in a line: Metabolic stability in human liver microsomes. The format is in vitro ADME. The note with it: both sexes; for half-life at 2 µM: read-out: t1/2; for k el at 2 µM: elimination constant, read-out: kel (converted). The procedure:
as §1

Where [4] appears, read: pH 7.4, LogD, pH 7.4, incubation 1.
The mark [5] stands for this setting: pH 7.4, LogD, pH 7.4, incubation 2.
[6] abbreviates: pH 7.4, LogD, pH 7.4, incubation 3.
Setting [7] is: Table S1, incubation 1, read-out: PBS solubility, pH 7.4, Incubation 1.
[8] abbreviates: Table S1, incubation 2, read-out: PBS solubility, pH 7.4, Incubation 2.
Where [9] appears, read: experimental kinetic solubility in phosphate-buffered saline at pH 7.4, Fig. 3, read-out: Solubility.
Where [10] appears, read: human, liver microsomes, pH 7.4, human liver microsomes, 2 μM, 37 °C, with NADPH, 7 min.
[11] abbreviates: human, liver microsomes, pH 7.4, human liver microsomes, 2 μM, 37 °C, with NADPH, 15 min.
Setting [12] is: human, liver microsomes, pH 7.4, human liver microsomes, 2 μM, 37 °C, with NADPH, read-out: % Remaining, Mean of 2.
Where [13] appears, read: human, liver microsomes, pH 7.4, human liver microsomes, 0.42 mg protein per ml, Table S3, * approximate due to high stability, read-out: Clint.
Setting [14] is: human, liver microsomes, pH 7.4, human liver microsomes, * approximate due to high stability.
The mark [15] stands for this setting: pH 7.4, human liver microsomes, no NADPH cofactor, ** instability partially or completely not determined by CYP450 activity, read-out: % Remaining without cofactor, Mean of 2.
Where [16] appears, read: pH 7.4, human liver microsomes, * approximate due to high stability.

As usually defined, the melting point is the temperature of the solid-liquid transition. As a reminder, the logD is lipophilicity at a set pH, counting ionised and neutral species. The low end stands for lower lipophilicity, the high end for higher lipophilicity. In general, solubility refers to how much of the substance goes into solution per volume.

In brackets after ≈: the same amount, converted by molar mass. Where two headings read alike, the source gives them in different places.

Take `O=C(O)C1C2CC1(c1ccccc1)CO2` (centres unmarked) [Compound 1b]: the chemical stability result in series [1] (aqueous 1 M hydrochloric acid) and in series [1] (aqueous 1 M sodium hydroxide) was “did not lead to any decomposition” throughout.

Turning to `O=C(O)C1C2CC1(c1ccc(C(F)(F)F)cc1)CO2` (centres unmarked) [Compound 19b], the melting point was 64 to 65 °C. Besides, the chemical stability entry in series [1] (aqueous 1 M hydrochloric acid) is “did not lead to any decomposition”. Moreover, the chemical stability result in series [1] (aqueous 1 M sodium hydroxide) is reported as “did not lead to any decomposition”.

On to `Cc1cncc(C23COC(C2)C3C(=O)O)c1` (centres unmarked) [Compound 22b], for which the melting point lay in the range of 204 to 205 °C. Further, in series [1] (aqueous 1 M hydrochloric acid), the chemical stability result was “did not lead to any decomposition”. The chemical stability entry in series [1] (aqueous 1 M sodium hydroxide) is recorded as “did not lead to any decomposition”.

Take `O=C(NC1CCN(CCCCC2(C(=O)NCC(F)(F)F)c3ccccc3-c3ccccc32)CC1)c1ccccc1-c1ccc(C(F)(F)F)cc1` [Lomitapide, reference compound]: the “D (partition ratio), incubation 1” value in “physchem” is 5.98E+08. For the same compound, the “D (partition ratio), incubation 2” value in “physchem” amounted to 3.42E+05. In addition, the “D (partition ratio), incubation 3” value in “physchem” stood at 6.79E+04. In addition, the logD at 1 h in “physchem” (pH 7.4, LogD, pH 7.4 (mean)) was more than 4.5; in “physchem” (setting [4]) it was more than 4.5; in the series “physchem” (setting [5]), more than 4.5; in the series “physchem” (setting [6]) it was more than 4.5; in the series “physchem” (pH 7.4, logD (7.4)) it was more than 4.5. Moreover, the solubility at 2 h in series [2] (setting [7]) was determined as 3 µM (≈ 2.08 µg/mL); in series [2] (setting [8]), 3 µM (≈ 2.08 µg/mL); in series [2] (Table S1, mean of 2 incubations, 2 h, 2% DMSO, effective range approx. 2-400 μM, read-out: PBS solubility, pH 7.4, Mean), 3 µM (≈ 2.08 µg/mL); in series [2] (setting [9]), 3 ± 0.1 µM (≈ 2.08 µg/mL). This compound also yielded a CIint, intrinsic clearance in the series with human liver microsomes (human liver microsomes) of 55 µL/min/mg. For the same compound, the fraction remaining at […], 2 µM in series [3] (setting [10]) came to 97%; in series [3] (setting [11]) it was 89%. In addition, in series [3] (setting [12]), the share remaining at 25 min, 2 µM came to 49%. The fraction remaining at 40 min, 2 µM was 46% in series [3] (setting [12]) and 88% in series [3] (setting [15]). Moreover, in series [3] (setting [13]), the microsomal CLint at 2 µM is 55 µL/min/mg. Moreover, the half-life at 2 µM in series [3] (setting [14]) was 0.507 h. The k el at 2 µM in series [3] (setting [16]) was 0.000383 s⁻¹.

In the case of `O=C(O)c1ccccc1C(=O)Nc1ccc(S(=O)(=O)Nc2nccs2)cc1` [Phthalylsulfathiazole, reference compound], the “D (partition ratio), incubation 1” value in the series “physchem” amounted to 2.09E-01. For the same compound, the “D (partition ratio), incubation 2” value in “physchem” came out at 8.99E-02. For the same compound, the “D (partition ratio), incubation 3” value in the series “physchem” came out at 4.17E-02. Moreover, the log distribution coefficient (logD) at 1 h in “physchem” (pH 7.4, LogD, pH 7.4 (mean)) is -1.04; in “physchem” (setting [4]) it was -0.68; in “physchem” (setting [5]), -1.05; in the series “physchem” (setting [6]), -1.38; in the series “physchem” (pH 7.4, logD (7.4)), less than 1. Besides, the figures for the solubility at 2 h in series [2] (setting [7]), in series [2] (setting [8]) and in series [2] (setting [9]) were 169 µM (≈ 68.2 µg/mL), 171 µM (≈ 69 µg/mL) and 170 µM (≈ 68.6 µg/mL), respectively. In the series on human liver microsomes (human, microsomes), the “metabolic stability (in words)” value is “metabolically stable”. For the same compound, the share remaining at […], 2 µM in series [3] (setting [10]) worked out at 97%; in series [3] (setting [11]), 101%. In series [3] (setting [12]), the amount remaining at 25 min, 2 µM is 101%. For the same compound, the figures for the share remaining at 40 min, 2 µM in series [3] (setting [12]) and in series [3] (setting [15]) were 96% and 124%, respectively. The microsomal CLint at 2 µM in series [3] (setting [13]) was approximately 2 µL/min/mg; in series [3] (human, liver microsomes, pH 7.4, human liver microsomes, Fig. 3, read-out: CIint, intrinsic clearance) it was 2 µL/min/mg. Besides, the half-life at 2 µM in series [3] (setting [14]) is approximately 16 h. In series [3] (setting [16]), the k el at 2 µM was approximately 1.67e-05 s⁻¹.
